How the values were obtained:
Assay in all cases: Radiolabeled ATP kinase assay, panel of 371 kinases (Table S6)
Format in all cases: biochemical
[1] = biological target: T1, panel of 371 human kinases (Homo sapiens, UniProt P42680); settings: TEC; 0.1 μM; 10 μM ATP; read-out: % Enzyme Activity (relative to DMSO controls)
T1 construct: purchased Reaction Biology Corp
Excerpt: (§1) ; FIG. 38C). […]. Further targeted analyses, such as genetic knock-down or knock-out, may be warranted to parse the role of these additional kinases in our model of neurodegeneration.

[2] = biological target: T2, panel of 371 human kinases (Homo sapiens, UniProt O43318); settings: TAK1; 0.1 μM; 10 μM ATP; read-out: % Enzyme Activity (relative to DMSO controls)
T2 construct: purchased Reaction Biology Corp
Excerpt: as §1

[3] = biological target: T3, panel of 371 human kinases (Homo sapiens, UniProt Q13237); settings: PKG2/PRKG2; 0.1 μM; 10 μM ATP; read-out: % Enzyme Activity (relative to DMSO controls)
T3 construct: purchased Reaction Biology Corp
Excerpt: as §1

[4] = biological target: T4, panel of 371 human kinases (Homo sapiens, UniProt Q13164); settings: ERK5/MAPK7; 0.1 μM; 10 μM ATP; read-out: % Enzyme Activity (relative to DMSO controls)
T4 construct: purchased Reaction Biology Corp
Excerpt: as §1

[5] = biological target: T5, panel of 371 human kinases (Homo sapiens, UniProt P80192); settings: MLK1/MAP3K9; 0.1 μM; 10 μM ATP; read-out: % Enzyme Activity (relative to DMSO controls)
T5 construct: purchased Reaction Biology Corp
Excerpt: as §1

[6] = biological target: T6, panel of 371 human kinases (Homo sapiens, UniProt P54764); settings: EPHA4; 0.1 μM; 10 μM ATP; read-out: % Enzyme Activity (relative to DMSO controls)
T6 construct: purchased Reaction Biology Corp
Excerpt: as §1

[7] = biological target: T7, panel of 371 human kinases (Homo sapiens, UniProt Q9NR20); settings: DYRK4; 0.1 μM; 10 μM ATP; read-out: % Enzyme Activity (relative to DMSO controls)
T7 construct: purchased Reaction Biology Corp
Excerpt: as §1

[8] = biological target: T8, panel of 371 human kinases (Homo sapiens, UniProt P41743); settings: PKCiota; 0.1 μM; 10 μM ATP; read-out: % Enzyme Activity (relative to DMSO controls)
T8 construct: purchased Reaction Biology Corp
Excerpt: as §1

[9] = biological target: T9, panel of 371 human kinases (Homo sapiens, UniProt Q76MJ5); settings: ERN2/IRE2; 0.1 μM; 10 μM ATP; read-out: % Enzyme Activity (relative to DMSO controls)
T9 construct: purchased Reaction Biology Corp
Excerpt: as §1

[10] = biological target: T10, panel of 371 human kinases (Homo sapiens, UniProt O14757); settings: CHK1; 0.1 μM; 10 μM ATP; read-out: % Enzyme Activity (relative to DMSO controls)
T10 construct: purchased Reaction Biology Corp
Excerpt: as §1

[11] = biological target: T11, panel of 371 human kinases (Homo sapiens, UniProt Q9BXA6); settings: SSTK/TSSK6; 0.1 μM; 10 μM ATP; read-out: % Enzyme Activity (relative to DMSO controls)
T11 construct: purchased Reaction Biology Corp
Excerpt: as §1

[12] = biological target: T12, panel of 371 human kinases (Homo sapiens, UniProt Q8TDC3); settings: BRSK1; 0.1 μM; 10 μM ATP; read-out: % Enzyme Activity (relative to DMSO controls)
T12 construct: purchased Reaction Biology Corp
Excerpt: as §1

[13] = biological target: T13, panel of 371 human kinases (Homo sapiens, UniProt P05771); settings: PKCb1; 0.1 μM; 10 μM ATP; read-out: % Enzyme Activity (relative to DMSO controls)
T13 construct: purchased Reaction Biology Corp
Excerpt: as §1

[14] = biological target: T14, panel of 371 human kinases (Homo sapiens, UniProt Q5TCX8); settings: MLK4; 0.1 μM; 10 μM ATP; read-out: % Enzyme Activity (relative to DMSO controls)
T14 construct: purchased Reaction Biology Corp
Excerpt: as §1

[15] = biological target: T15, panel of 371 human kinases (Homo sapiens, UniProt P25098); settings: GRK2; 0.1 μM; 10 μM ATP; read-out: % Enzyme Activity (relative to DMSO controls)
T15 construct: purchased Reaction Biology Corp
Excerpt: as §1

[16] = biological target: T16, panel of 371 human kinases (Homo sapiens, UniProt Q15375); settings: EPHA7; 0.1 μM; 10 μM ATP; read-out: % Enzyme Activity (relative to DMSO controls)
T16 construct: purchased Reaction Biology Corp
Excerpt: as §1

[17] = biological target: T17, panel of 371 human kinases (Homo sapiens, UniProt O95835); settings: LATS1; 0.1 μM; 10 μM ATP; read-out: % Enzyme Activity (relative to DMSO controls)
T17 construct: purchased Reaction Biology Corp
Excerpt: as §1

[18] = biological target: T18, panel of 371 human kinases (Homo sapiens, UniProt O94806); settings: PKCnu/PRKD3; 0.1 μM; 10 μM ATP; read-out: % Enzyme Activity (relative to DMSO controls)
T18 construct: purchased Reaction Biology Corp
Excerpt: as §1

[19] = biological target: T19, panel of 371 human kinases (Homo sapiens, UniProt P07947); settings: YES/YES1; 0.1 μM; 10 μM ATP; read-out: % Enzyme Activity (relative to DMSO controls)
T19 construct: purchased Reaction Biology Corp
Excerpt: as §1

[20] = biological target: T20, panel of 371 human kinases (Homo sapiens, UniProt Q6XUX3); settings: RIPK5; 0.1 μM; 10 μM ATP; read-out: % Enzyme Activity (relative to DMSO controls)
T20 construct: purchased Reaction Biology Corp
Excerpt: as §1

[21] = biological target: T21, panel of 371 human kinases (Homo sapiens, UniProt Q9UEE5); settings: DRAK1/STK17A; 0.1 μM; 10 μM ATP; read-out: % Enzyme Activity (relative to DMSO controls)
T21 construct: purchased Reaction Biology Corp
Excerpt: as §1

[22] = biological target: T22, panel of 371 human kinases (Homo sapiens, UniProt O75716); settings: STK16; 0.1 μM; 10 μM ATP; read-out: % Enzyme Activity (relative to DMSO controls)
T22 construct: purchased Reaction Biology Corp
Excerpt: as §1

[23] = biological target: T23, panel of 371 human kinases (Homo sapiens, UniProt Q92918); settings: HPK1/MAP4K1; 0.1 μM; 10 μM ATP; read-out: % Enzyme Activity (relative to DMSO controls)
T23 construct: purchased Reaction Biology Corp
Excerpt: as §1

[24] = biological target: T24, panel of 371 human kinases (Homo sapiens, UniProt Q9UQB9); settings: Aurora C; 0.1 μM; 10 μM ATP; read-out: % Enzyme Activity (relative to DMSO controls)
T24 construct: purchased Reaction Biology Corp
Excerpt: as §1

T19 sequence (P07947 whole entry): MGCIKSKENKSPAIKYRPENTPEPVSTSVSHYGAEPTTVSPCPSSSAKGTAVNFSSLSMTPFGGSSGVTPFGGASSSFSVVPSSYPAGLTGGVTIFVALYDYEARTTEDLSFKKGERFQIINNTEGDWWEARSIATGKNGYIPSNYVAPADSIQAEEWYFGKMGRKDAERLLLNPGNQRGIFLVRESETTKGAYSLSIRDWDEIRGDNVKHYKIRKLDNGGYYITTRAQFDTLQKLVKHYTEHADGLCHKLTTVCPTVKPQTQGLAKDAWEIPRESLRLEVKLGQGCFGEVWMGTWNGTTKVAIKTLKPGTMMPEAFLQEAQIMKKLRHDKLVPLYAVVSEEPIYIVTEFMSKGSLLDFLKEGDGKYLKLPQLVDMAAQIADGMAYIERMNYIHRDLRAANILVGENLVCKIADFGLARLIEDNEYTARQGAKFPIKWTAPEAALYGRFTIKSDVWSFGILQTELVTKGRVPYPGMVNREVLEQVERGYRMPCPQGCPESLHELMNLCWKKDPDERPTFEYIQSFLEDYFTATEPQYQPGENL
T9 sequence (Q76MJ5 35-926): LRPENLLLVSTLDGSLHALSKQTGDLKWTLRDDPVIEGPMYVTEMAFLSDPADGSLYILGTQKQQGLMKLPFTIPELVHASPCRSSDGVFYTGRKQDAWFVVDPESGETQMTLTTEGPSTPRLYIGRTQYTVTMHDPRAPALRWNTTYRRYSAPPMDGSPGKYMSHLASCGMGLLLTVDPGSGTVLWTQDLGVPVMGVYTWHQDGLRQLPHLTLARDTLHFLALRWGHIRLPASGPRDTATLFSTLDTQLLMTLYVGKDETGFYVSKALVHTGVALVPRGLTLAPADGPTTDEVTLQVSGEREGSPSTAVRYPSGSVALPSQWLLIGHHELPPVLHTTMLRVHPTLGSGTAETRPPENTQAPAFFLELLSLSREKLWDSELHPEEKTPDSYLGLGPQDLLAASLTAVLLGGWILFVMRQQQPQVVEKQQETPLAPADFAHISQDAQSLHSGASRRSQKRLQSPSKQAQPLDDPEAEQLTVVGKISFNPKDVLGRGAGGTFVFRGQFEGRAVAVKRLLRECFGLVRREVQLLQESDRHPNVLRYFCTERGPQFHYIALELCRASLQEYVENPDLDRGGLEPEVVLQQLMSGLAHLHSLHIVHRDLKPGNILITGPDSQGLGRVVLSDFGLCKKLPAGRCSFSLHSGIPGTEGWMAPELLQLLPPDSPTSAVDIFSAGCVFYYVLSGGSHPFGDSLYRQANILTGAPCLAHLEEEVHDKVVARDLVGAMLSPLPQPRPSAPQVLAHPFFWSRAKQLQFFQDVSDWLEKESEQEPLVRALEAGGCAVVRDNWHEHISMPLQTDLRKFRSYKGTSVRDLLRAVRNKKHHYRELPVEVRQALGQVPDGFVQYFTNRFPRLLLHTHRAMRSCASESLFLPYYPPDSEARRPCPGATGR
T11 sequence (Q9BXA6 whole entry): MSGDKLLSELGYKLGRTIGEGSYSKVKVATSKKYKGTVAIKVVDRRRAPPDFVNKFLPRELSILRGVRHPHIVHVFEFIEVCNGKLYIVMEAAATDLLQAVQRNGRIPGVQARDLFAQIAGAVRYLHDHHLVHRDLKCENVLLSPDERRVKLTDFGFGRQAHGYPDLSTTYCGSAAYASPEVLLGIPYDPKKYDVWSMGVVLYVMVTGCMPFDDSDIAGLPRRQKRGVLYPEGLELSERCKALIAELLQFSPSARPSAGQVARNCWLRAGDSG
T24 sequence (Q9UQB9 whole entry): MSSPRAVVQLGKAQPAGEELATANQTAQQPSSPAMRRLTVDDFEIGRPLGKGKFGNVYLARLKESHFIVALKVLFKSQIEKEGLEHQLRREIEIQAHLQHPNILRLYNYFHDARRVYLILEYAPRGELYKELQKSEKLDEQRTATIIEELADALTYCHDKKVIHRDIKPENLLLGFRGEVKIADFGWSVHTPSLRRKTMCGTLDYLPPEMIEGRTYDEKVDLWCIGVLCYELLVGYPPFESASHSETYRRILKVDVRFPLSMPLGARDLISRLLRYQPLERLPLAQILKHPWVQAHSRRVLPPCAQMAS
T12 sequence (Q8TDC3 whole entry): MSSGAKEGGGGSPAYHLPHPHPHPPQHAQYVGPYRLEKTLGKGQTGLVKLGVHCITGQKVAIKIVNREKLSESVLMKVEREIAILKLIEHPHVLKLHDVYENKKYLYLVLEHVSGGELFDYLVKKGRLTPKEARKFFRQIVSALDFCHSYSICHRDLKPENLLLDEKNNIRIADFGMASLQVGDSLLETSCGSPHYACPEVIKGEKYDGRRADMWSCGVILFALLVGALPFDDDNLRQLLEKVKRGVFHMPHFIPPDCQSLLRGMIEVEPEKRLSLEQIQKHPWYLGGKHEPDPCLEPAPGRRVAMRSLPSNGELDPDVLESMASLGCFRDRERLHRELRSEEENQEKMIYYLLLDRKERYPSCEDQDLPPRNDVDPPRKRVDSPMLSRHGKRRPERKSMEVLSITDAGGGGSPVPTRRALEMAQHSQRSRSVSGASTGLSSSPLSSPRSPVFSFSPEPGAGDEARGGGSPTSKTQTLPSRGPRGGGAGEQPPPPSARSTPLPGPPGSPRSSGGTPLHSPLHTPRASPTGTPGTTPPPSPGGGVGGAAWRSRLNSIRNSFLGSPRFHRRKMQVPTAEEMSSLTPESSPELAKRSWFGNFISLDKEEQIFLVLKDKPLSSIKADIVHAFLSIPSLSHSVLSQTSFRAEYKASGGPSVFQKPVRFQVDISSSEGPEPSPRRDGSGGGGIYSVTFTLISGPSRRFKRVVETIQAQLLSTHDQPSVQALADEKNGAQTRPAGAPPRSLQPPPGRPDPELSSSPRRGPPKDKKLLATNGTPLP
T2 sequence (O43318 whole entry): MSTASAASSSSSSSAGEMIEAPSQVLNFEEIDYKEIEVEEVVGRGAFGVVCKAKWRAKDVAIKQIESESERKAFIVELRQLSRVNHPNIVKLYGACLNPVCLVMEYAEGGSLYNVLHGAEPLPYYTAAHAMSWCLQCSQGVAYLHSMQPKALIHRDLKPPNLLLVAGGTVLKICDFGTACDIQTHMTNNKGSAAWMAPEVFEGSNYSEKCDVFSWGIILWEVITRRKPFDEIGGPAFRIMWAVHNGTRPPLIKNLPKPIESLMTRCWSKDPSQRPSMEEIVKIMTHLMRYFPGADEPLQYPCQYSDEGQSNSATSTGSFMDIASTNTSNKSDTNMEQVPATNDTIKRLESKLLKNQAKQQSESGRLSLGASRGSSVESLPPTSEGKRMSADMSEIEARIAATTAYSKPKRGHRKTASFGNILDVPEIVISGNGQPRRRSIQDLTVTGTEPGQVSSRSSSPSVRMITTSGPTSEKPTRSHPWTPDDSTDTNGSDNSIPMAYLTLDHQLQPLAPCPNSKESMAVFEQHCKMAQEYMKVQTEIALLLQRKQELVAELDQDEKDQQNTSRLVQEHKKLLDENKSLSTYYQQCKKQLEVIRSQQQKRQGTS
T21 sequence (Q9UEE5 whole entry): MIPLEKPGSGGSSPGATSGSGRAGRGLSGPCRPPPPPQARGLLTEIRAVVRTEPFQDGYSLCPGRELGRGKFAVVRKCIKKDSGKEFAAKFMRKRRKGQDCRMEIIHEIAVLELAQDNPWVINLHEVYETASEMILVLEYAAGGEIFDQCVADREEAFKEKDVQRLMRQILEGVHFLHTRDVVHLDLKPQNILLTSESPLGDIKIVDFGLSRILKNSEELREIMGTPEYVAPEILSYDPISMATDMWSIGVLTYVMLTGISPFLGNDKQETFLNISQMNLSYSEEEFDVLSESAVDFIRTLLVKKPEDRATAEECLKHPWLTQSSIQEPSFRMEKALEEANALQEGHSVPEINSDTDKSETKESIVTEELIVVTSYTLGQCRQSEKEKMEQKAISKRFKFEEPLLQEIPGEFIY
T18 sequence (O94806 whole entry): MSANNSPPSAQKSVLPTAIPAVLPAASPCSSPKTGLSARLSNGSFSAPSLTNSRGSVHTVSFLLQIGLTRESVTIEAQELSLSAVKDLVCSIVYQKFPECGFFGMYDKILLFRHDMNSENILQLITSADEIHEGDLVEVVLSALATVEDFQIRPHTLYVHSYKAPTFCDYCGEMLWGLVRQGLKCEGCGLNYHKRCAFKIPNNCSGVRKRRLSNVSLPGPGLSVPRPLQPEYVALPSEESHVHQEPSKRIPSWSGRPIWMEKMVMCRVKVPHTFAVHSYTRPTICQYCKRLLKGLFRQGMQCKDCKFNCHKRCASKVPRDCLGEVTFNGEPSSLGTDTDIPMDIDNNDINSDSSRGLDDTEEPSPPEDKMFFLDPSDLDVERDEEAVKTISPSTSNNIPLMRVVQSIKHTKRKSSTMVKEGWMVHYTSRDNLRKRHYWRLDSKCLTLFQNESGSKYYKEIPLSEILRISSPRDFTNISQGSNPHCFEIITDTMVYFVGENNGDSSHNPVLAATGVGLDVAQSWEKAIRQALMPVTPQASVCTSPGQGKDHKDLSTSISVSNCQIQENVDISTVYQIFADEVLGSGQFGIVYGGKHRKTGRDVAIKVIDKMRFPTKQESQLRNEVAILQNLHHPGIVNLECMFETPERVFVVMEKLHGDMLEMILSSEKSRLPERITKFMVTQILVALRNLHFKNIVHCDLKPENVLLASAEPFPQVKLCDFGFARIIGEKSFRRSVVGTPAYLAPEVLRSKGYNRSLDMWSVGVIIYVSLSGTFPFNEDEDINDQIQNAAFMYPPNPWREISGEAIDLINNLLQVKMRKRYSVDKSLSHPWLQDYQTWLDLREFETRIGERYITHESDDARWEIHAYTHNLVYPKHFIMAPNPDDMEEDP
T22 sequence (O75716 whole entry): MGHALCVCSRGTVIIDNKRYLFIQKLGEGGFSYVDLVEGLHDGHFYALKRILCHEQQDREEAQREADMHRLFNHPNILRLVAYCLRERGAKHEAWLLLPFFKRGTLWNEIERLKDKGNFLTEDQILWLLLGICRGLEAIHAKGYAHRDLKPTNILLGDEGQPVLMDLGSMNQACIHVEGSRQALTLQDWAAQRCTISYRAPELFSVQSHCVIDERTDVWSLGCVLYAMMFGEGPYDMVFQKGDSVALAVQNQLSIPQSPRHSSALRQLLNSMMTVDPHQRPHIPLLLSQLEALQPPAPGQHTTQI

## CN1CCN(Cc2ccc(-c3cnc4[nH]cc(-c5ccc6[nH]ccc6c5)c4c3)cc2)CC1 [Compound 1, 3-(1H-Indol-5-yl)-5-(4-((4-methylpiperazin-1-yl)methyl)phenyl)-1H-pyrrolo[2,3-b]pyridine, reference compound]
[1]
  remaining activity at 0.1 µM: 106%
[2]
  remaining activity at 0.1 µM: 84.6%
[3]
  remaining activity at 0.1 µM: 93.8%
[4]
  remaining activity at 0.1 µM: 102%
[5]
  remaining activity at 0.1 µM: 48.2%
[6]
  remaining activity at 0.1 µM: 94.2%
[7]
  remaining activity at 0.1 µM: 111%
[8]
  remaining activity at 0.1 µM: 100%
[9]
  remaining activity at 0.1 µM: 92.3%
[10]
  remaining activity at 0.1 µM: 90%
[11]
  remaining activity at 0.1 µM: 121%
[12]
  remaining activity at 0.1 µM: 80.8%
[13]
  remaining activity at 0.1 µM: 78.3%
[14]
  remaining activity at 0.1 µM: 99.9%
[15]
  remaining activity at 0.1 µM: 94%
[16]
  remaining activity at 0.1 µM: 89.5%
[17]
  remaining activity at 0.1 µM: 83.6%
[18]
  remaining activity at 0.1 µM: 29.1%
[19]
  remaining activity at 0.1 µM: 96.6%
[20]
  remaining activity at 0.1 µM: 75.6%
[21]
  remaining activity at 0.1 µM: 88.7%
[22]
  remaining activity at 0.1 µM: 100%
[23]
  remaining activity at 0.1 µM: 49.6%
[24]
  remaining activity at 0.1 µM: 110%

## OCCN1CCN(Cc2ccc(-c3cnc4[nH]cc(-c5cccc(Cl)c5)c4c3)cc2)CC1 [Compound 12k, 2-(4-(4-(3-(3-Chlorophenyl)-1H-pyrrolo[2,3-b]pyridin-5-yl)benzyl)piperazin-1-yl)ethan-1-ol]
[1]
  remaining activity at 0.1 µM: 99.9%
[2]
  remaining activity at 0.1 µM: 77.4%
[3]
  remaining activity at 0.1 µM: 88.7%
[4]
  remaining activity at 0.1 µM: 113%
[5]
  remaining activity at 0.1 µM: 73.7%
[6]
  remaining activity at 0.1 µM: 88.7%
[7]
  remaining activity at 0.1 µM: 101%
[8]
  remaining activity at 0.1 µM: 93%
[9]
  remaining activity at 0.1 µM: 64.3%
[10]
  remaining activity at 0.1 µM: 75%
[11]
  remaining activity at 0.1 µM: 102%
[12]
  remaining activity at 0.1 µM: 83.6%
[13]
  remaining activity at 0.1 µM: 86.2%
[14]
  remaining activity at 0.1 µM: 108%
[15]
  remaining activity at 0.1 µM: 96.3%
[16]
  remaining activity at 0.1 µM: 91.3%
[17]
  remaining activity at 0.1 µM: 84.4%
[18]
  remaining activity at 0.1 µM: 13.6%
[19]
  remaining activity at 0.1 µM: 109%
[20]
  remaining activity at 0.1 µM: 73.4%
[21]
  remaining activity at 0.1 µM: 88.8%
[22]
  remaining activity at 0.1 µM: 109%
[23]
  remaining activity at 0.1 µM: 47.9%
[24]
  remaining activity at 0.1 µM: 97.3%

— patent US12227500B2, “Substituted pyrrolo[2,3-b]pyridines for suppressing toxic endoplasmic reticulum stress” (THE TRUSTEES OF COLUMBIA UNIVERSITY IN THE CITY OF NEW YORK, priority 2018, dated 2025)
